Laboratory results as given in patent US20170240543A1, “CRYSTALLINE FORMS OF PALBOCICLIB” (Sun Pharmaceutical Industries Limited, priority 2014, published 2017).

How the values were obtained:
[1] = Specific surface area (Micromeritic Gemini VII 2390 Surface Analyzer); assay type: physicochemical
Method: Specific surface area was determined using a Micromeritic® Gemini® VII 2390 Surface Analyzer (Software: Gemini VII, version 1.03).

[2] = Filterability, electrostatic nature and flowability of the solid; assay type: physicochemical; conditions: no comparator stated

SMILES: CC(=O)c1c(C)c2cnc(Nc3ccc(N4CCNCC4)cn3)nc2n(C2CCCC2)c1=O [Form V-A, 6-acetyl-8-cyclopentyl-5-methyl-2-[[5-(1-piperazinyl)-2-pyridinyl]amino]pyrido[2,3-d]pyrimidin-7(8H)-one]
- specific surface area (SSA) [1]: greater than 2 m^2/g
- filterability, electrostatic nature, and flowability [2]: improved
